The values below come from PMC7071731 (Journal of molecular biology, 2019).

Data set [1] has as its target AcrB (Escherichia coli, UniProt P31224, V340A). Briefly: ITC. The class given is binding.
In data set [2] the target is AcrB (Escherichia coli, UniProt P31224, I27A). The experiment in a line: ITC. Type of data set: binding.
Data set [3] concerns the target AcrB (Escherichia coli, UniProt P31224, N298A). Briefly: ITC. Type of data set: binding.
The target in data set [4] is AcrB (Escherichia coli, UniProt P31224). The experiment in a line: ITC. Type of data set: binding.
AcrB (Escherichia coli, UniProt P31224), sequence (P31224 whole entry): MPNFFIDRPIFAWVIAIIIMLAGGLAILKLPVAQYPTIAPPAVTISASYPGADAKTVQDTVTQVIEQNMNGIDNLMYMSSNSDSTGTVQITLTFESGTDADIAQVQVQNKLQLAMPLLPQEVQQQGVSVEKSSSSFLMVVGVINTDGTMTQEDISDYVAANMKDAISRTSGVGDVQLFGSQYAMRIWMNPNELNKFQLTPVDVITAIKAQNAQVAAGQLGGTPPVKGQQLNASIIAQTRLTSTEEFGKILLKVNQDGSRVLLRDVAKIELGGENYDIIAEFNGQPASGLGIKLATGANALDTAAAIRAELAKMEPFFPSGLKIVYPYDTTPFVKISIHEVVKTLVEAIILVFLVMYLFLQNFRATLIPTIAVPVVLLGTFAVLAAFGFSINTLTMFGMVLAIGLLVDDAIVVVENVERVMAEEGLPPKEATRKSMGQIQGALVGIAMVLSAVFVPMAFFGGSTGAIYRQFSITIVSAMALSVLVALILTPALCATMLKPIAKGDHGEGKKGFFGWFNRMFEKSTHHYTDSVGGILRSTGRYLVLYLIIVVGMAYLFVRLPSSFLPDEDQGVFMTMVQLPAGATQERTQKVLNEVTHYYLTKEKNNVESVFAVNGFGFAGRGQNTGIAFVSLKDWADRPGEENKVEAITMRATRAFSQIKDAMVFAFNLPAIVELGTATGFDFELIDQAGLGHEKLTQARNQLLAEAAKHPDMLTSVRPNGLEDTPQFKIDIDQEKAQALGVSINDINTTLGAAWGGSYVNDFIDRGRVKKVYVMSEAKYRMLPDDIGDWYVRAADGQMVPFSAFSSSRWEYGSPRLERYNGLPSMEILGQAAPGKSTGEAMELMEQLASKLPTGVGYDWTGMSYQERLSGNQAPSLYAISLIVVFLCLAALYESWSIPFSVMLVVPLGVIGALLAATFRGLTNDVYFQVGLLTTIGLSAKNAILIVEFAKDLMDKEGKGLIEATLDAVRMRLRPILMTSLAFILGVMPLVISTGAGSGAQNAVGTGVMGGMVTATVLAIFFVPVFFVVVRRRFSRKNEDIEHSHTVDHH
The data set “crystal structure” concerns the molecule itself. Briefly: crystal structure.

One may read the Kd as the free concentration of one partner at which half of the binding sites on the other are occupied at equilibrium, for simple one-to-one binding. Turning to `CC(=O)O[C@H]1C[C@@]2(C)[C@@H](C[C@@H](O)[C@H]3[C@@]4(C)CC[C@@H](O)[C@@H](C)[C@@H]4CC[C@@]32C)/C1=C(\CCC=C(C)C)C(=O)O` [FUA, fusidic acid], the Kd at AcrB [1] was 826.5 ± 4.8 µM; at AcrB [2] it was 405 ± 6.6 µM; at AcrB [3] it was 1120 ± 18.2 µM; on AcrB [4] it was 528 ± 8.6 µM.

B1: AcrB-N298A (natural protein)
chain: MPNFFIDRPIFAWVIAIIIMLAGGLAILKLPVAQYPTIAPPAVTISASYPGADAKTVQDTVTQVIEQNMNGIDNLMYMSSNSDSTGTVQITLTFESGTDADIAQVQVQNKLQLAMPLLPQEVQQQGVSVEKSSSSFLMVVGVINTDGTMTQEDISDYVAANMKDAISRTSGVGDVQLFGSQYAMRIWMNPNELNKFQLTPVDVITAIKAQNAQVAAGQLGGTPPVKGQQLNASIIAQTRLTSTEEFGKILLKVNQDGSRVLLRDVAKIELGGENYDIIAEFNGQPASGLGIKLATGAAALDTAAAIRAELAKMEPFFPSGLKIVYPYDTTPFVKISIHEVVKTLVEAIILVFLVMYLFLQNFRATLIPTIAVPVVLLGTFAVLAAFGFSINTLTMFGMVLAIGLLVDDAIVVVENVERVMAEEGLPPKEATRKSMGQIQGALVGIAMVLSAVFVPMAFFGGSTGAIYRQFSITIVSAMALSVLVALILTPALCATMLKPIAKGDHGEGKKGFFGWFNRMFEKSTHHYTDSVGGILRSTGRYLVLYLIIVVGMAYLFVRLPSSFLPDEDQGVFMTMVQLPAGATQERTQKVLNEVTHYYLTKEKNNVESVFAVNGFGFAGRGQNTGIAFVSLKDWADRPGEENKVEAITMRATRAFSQIKDAMVFAFNLPAIVELGTATGFDFELIDQAGLGHEKLTQARNQLLAEAAKHPDMLTSVRPNGLEDTPQFKIDIDQEKAQALGVSINDINTTLGAAWGGSYVNDFIDRGRVKKVYVMSEAKYRMLPDDIGDWYVRAADGQMVPFSAFSSSRWEYGSPRLERYNGLPSMEILGQAAPGKSTGEAMELMEQLASKLPTGVGYDWTGMSYQERLSGNQAPSLYAISLIVVFLCLAALYESWSIPFSVMLVVPLGVIGALLAATFRGLTNDVYFQVGLLTTIGLSAKNAILIVEFAKDLMDKEGKGLIEATLDAVRMRLRPILMTSLAFILGVMPLVISTGAGSGAQNAVGTGVMGGMVTATVLAIFFVPVFFVVVRRRFSRKNEDIEHSHTVDHH
B1: the binding result in “crystal structure” is reported as “binds”.

B2: AcrB-I27A (natural protein)
chain: MPNFFIDRPIFAWVIAIIIMLAGGLAALKLPVAQYPTIAPPAVTISASYPGADAKTVQDTVTQVIEQNMNGIDNLMYMSSNSDSTGTVQITLTFESGTDADIAQVQVQNKLQLAMPLLPQEVQQQGVSVEKSSSSFLMVVGVINTDGTMTQEDISDYVAANMKDAISRTSGVGDVQLFGSQYAMRIWMNPNELNKFQLTPVDVITAIKAQNAQVAAGQLGGTPPVKGQQLNASIIAQTRLTSTEEFGKILLKVNQDGSRVLLRDVAKIELGGENYDIIAEFNGQPASGLGIKLATGANALDTAAAIRAELAKMEPFFPSGLKIVYPYDTTPFVKISIHEVVKTLVEAIILVFLVMYLFLQNFRATLIPTIAVPVVLLGTFAVLAAFGFSINTLTMFGMVLAIGLLVDDAIVVVENVERVMAEEGLPPKEATRKSMGQIQGALVGIAMVLSAVFVPMAFFGGSTGAIYRQFSITIVSAMALSVLVALILTPALCATMLKPIAKGDHGEGKKGFFGWFNRMFEKSTHHYTDSVGGILRSTGRYLVLYLIIVVGMAYLFVRLPSSFLPDEDQGVFMTMVQLPAGATQERTQKVLNEVTHYYLTKEKNNVESVFAVNGFGFAGRGQNTGIAFVSLKDWADRPGEENKVEAITMRATRAFSQIKDAMVFAFNLPAIVELGTATGFDFELIDQAGLGHEKLTQARNQLLAEAAKHPDMLTSVRPNGLEDTPQFKIDIDQEKAQALGVSINDINTTLGAAWGGSYVNDFIDRGRVKKVYVMSEAKYRMLPDDIGDWYVRAADGQMVPFSAFSSSRWEYGSPRLERYNGLPSMEILGQAAPGKSTGEAMELMEQLASKLPTGVGYDWTGMSYQERLSGNQAPSLYAISLIVVFLCLAALYESWSIPFSVMLVVPLGVIGALLAATFRGLTNDVYFQVGLLTTIGLSAKNAILIVEFAKDLMDKEGKGLIEATLDAVRMRLRPILMTSLAFILGVMPLVISTGAGSGAQNAVGTGVMGGMVTATVLAIFFVPVFFVVVRRRFSRKNEDIEHSHTVDHH
B2: the binding result in “crystal structure” is listed as “binds”.

B3: AcrB-V340A (natural protein)
chain: MPNFFIDRPIFAWVIAIIIMLAGGLAILKLPVAQYPTIAPPAVTISASYPGADAKTVQDTVTQVIEQNMNGIDNLMYMSSNSDSTGTVQITLTFESGTDADIAQVQVQNKLQLAMPLLPQEVQQQGVSVEKSSSSFLMVVGVINTDGTMTQEDISDYVAANMKDAISRTSGVGDVQLFGSQYAMRIWMNPNELNKFQLTPVDVITAIKAQNAQVAAGQLGGTPPVKGQQLNASIIAQTRLTSTEEFGKILLKVNQDGSRVLLRDVAKIELGGENYDIIAEFNGQPASGLGIKLATGANALDTAAAIRAELAKMEPFFPSGLKIVYPYDTTPFVKISIHEAVKTLVEAIILVFLVMYLFLQNFRATLIPTIAVPVVLLGTFAVLAAFGFSINTLTMFGMVLAIGLLVDDAIVVVENVERVMAEEGLPPKEATRKSMGQIQGALVGIAMVLSAVFVPMAFFGGSTGAIYRQFSITIVSAMALSVLVALILTPALCATMLKPIAKGDHGEGKKGFFGWFNRMFEKSTHHYTDSVGGILRSTGRYLVLYLIIVVGMAYLFVRLPSSFLPDEDQGVFMTMVQLPAGATQERTQKVLNEVTHYYLTKEKNNVESVFAVNGFGFAGRGQNTGIAFVSLKDWADRPGEENKVEAITMRATRAFSQIKDAMVFAFNLPAIVELGTATGFDFELIDQAGLGHEKLTQARNQLLAEAAKHPDMLTSVRPNGLEDTPQFKIDIDQEKAQALGVSINDINTTLGAAWGGSYVNDFIDRGRVKKVYVMSEAKYRMLPDDIGDWYVRAADGQMVPFSAFSSSRWEYGSPRLERYNGLPSMEILGQAAPGKSTGEAMELMEQLASKLPTGVGYDWTGMSYQERLSGNQAPSLYAISLIVVFLCLAALYESWSIPFSVMLVVPLGVIGALLAATFRGLTNDVYFQVGLLTTIGLSAKNAILIVEFAKDLMDKEGKGLIEATLDAVRMRLRPILMTSLAFILGVMPLVISTGAGSGAQNAVGTGVMGGMVTATVLAIFFVPVFFVVVRRRFSRKNEDIEHSHTVDHH
For B3, the binding result in the data set “crystal structure” is reported as “binds”.
